# Columns and labels:
# Assay type in all cases: in vivo, BALB/c mice
# [1] = test system: histamine-induced pruritus; assay: Histamine-induced pruritus, number of scratching actions (MicroAct); conditions: mice; 1 μM and 10 μM injected subcutaneously together with 100 μg histamine; counted for 1 hour; p<0.01 versus histamine-treated group; FIG. 1
# Protocol: (§1) Six-week-old, specific-pathogen-free male BALB/c mice were purchased from Orient Bio Korea Inc. (Gapyeong, Gyeonggi-do, Korea) and housed in a laminar flow cabinet. They were provided with standard solid chows ad libitum. At the onset of the test, the mice were 7-8 weeks old. All animal care and use were performed in accordance with the protocol of the Institutional Animal Care and Use Committee of the Chonbuk National University Medical School. Isoflavone-based compounds genistein, daidzein, glycitein and equol were purchased from Sigma. They were dissolved in DMSO and diluted with distilled water. […] Histamine, chloroquine and DNCB were also purchased from Sigma. Pruritus was induced by subcutaneously injecting histamine and chloroquine to the mice. Specifically, 0.1 mL of 2 mg/mL histamine and 4 mg/mL chloroquine were injected respectively. Pruritus was evaluated using MicroAct (Neuroscience, Inc., Tokyo, Japan) according to the method established by the company. The mouse was anesthetized and a magnet piece was inserted into the foot skin of the left hind leg. The mouse was put in a chamber surrounded by a coil and the number of scratching actions was recorded by a computer based on the electrical field generated by the scratching. The experimental conditions of the MicroAct were set as follows. Threshold p-p limit, 0.125 V; threshold minimum duration, 0.2 s; maximum amplitude range, 0.5 V; minimum amplitude range, 0.05 V; maximum frequency, 20 Hz; minimum frequency, 5 Hz. Recording was made only for 3 or more consecutive scratching actions. All the experiments were performed for at least 3 times and 2-3 mice were used per each group. Statistical data were represented by means and standard deviations. Statistical comparison was conducted by one-way ANOVA and the Fisher test. Significant difference between the groups was determined by the unpaired Student's t-test. The significant level of the p-value was less than 0.05. In order to measure the effect of inhibiting histamine-induced pruritus of genistein, daidzein, glycitein and equol, 100 μg of histamine was dissolved in 0.1 mL of physiological saline and injected subcutaneously to induce pruritus. After injecting each of genistein, daidzein, glycitein and equol at 1 μM and 10 μM together with the histamine, the number of scratching actions was counted for 1 hour.
# [2] = test system: chloroquine-induced pruritus; assay: Chloroquine-induced pruritus, number of scratching actions (MicroAct); conditions: mice; 1 μM and 10 μM injected subcutaneously together with 200 μg chloroquine; counted for 1 hour; p<0.01 versus chloroquine-treated group; FIG. 2
# Protocol: as §1, with “inhibiting chloroquine-induced” for “inhibiting histamine-induced”, “equol, 200” for “equol, 100”, “of chloroquine” for “of histamine”, “the chloroquine,” for “the histamine,”
# [3] = test system: DNCB-induced pruritus; assay: DNCB-induced pruritus, number of scratching actions (MicroAct); conditions: DNCB-sensitized mice; 1 μM or 10 μM applied on the right ear with DNCB; counted for 1 hour; p<0.01 versus DNCB-treated group; FIG. 3
# Protocol: Six-week-old, specific-pathogen-free male BALB/c mice were purchased from Orient Bio Korea Inc. (Gapyeong, Gyeonggi-do, Korea) and housed in a laminar flow cabinet. They were provided with standard solid chows ad libitum. At the onset of the test, the mice were 7-8 weeks old. All animal care and use were performed in accordance with the protocol of the Institutional Animal Care and Use Committee of the Chonbuk National University Medical School. Isoflavone-based compounds genistein, daidzein, glycitein and equol were purchased from Sigma. They were dissolved in DMSO and diluted with distilled water. […] Histamine, chloroquine and DNCB were also purchased from Sigma. Pruritus was induced with DNCB. Specifically, after removing hair from the right ear of the mouse, 20 μL of 1% DNCB dissolved in a mixture of olive oil and ethanol (1:4) was applied for sensitization. 10 μL of 0.5% DNCB was applied on the same ear 7 days later (Exp. Dermatol., 2002, 11:285-291). Pruritus was evaluated using MicroAct (Neuroscience, Inc., Tokyo, Japan) according to the method established by the company. The mouse was anesthetized and a magnet piece was inserted into the foot skin of the left hind leg. The mouse was put in a chamber surrounded by a coil and the number of scratching actions was recorded by a computer based on the electrical field generated by the scratching. The experimental conditions of the MicroAct were set as follows. Threshold p-p limit, 0.125 V; threshold minimum duration, 0.2 s; maximum amplitude range, 0.5 V; minimum amplitude range, 0.05 V; maximum frequency, 20 Hz; minimum frequency, 5 Hz. Recording was made only for 3 or more consecutive scratching actions. All the experiments were performed for at least 3 times and 2-3 mice were used per each group. Statistical data were represented by means and standard deviations. Statistical comparison was conducted by one-way ANOVA and the Fisher test. Significant difference between the groups was determined by the unpaired Student's t-test. The significant level of the p-value was less than 0.05. In order to measure the effect of inhibiting DNCB-induced pruritus of genistein, daidzein, glycitein and equol, 20 μL of a 1% DNCB solution was applied on the right ear of the mouse for 7 days for sensitization. 10 μL of 0.5% DNCB was applied on the same ear 7 days later, 1 μM or 10 μM genistein, daidzein, glycitein or equol and 1% DNCB dissolved in physiological saline was applied on the right ear (physiological saline was applied for a negative control group) and the number of scratching actions was counted for 1 hour.
# [4] = test system: SLIGRL-induced pruritus (agonist for the protease activated receptor 2); assay: SLIGRL-induced pruritus, number of scratching actions (MicroAct); conditions: mice; 1 μM and 10 μM injected subcutaneously together with 20 μg SLIGRL; counted for 1 hour; p<0.05 versus SLIGRL-treated group; FIG. 4
# Protocol: Six-week-old, specific-pathogen-free male BALB/c mice were purchased from Orient Bio Korea Inc. (Gapyeong, Gyeonggi-do, Korea) and housed in a laminar flow cabinet. They were provided with standard solid chows ad libitum. At the onset of the test, the mice were 7-8 weeks old. All animal care and use were performed in accordance with the protocol of the Institutional Animal Care and Use Committee of the Chonbuk National University Medical School. Isoflavone-based compounds genistein, daidzein, glycitein and equol were purchased from Sigma. They were dissolved in DMSO and diluted with distilled water. […] Histamine, chloroquine and DNCB were also purchased from Sigma. Pruritus was induced with SLIGRL. Specifically, 20 μg of SLIGRL was dissolved in 0.1 mL of physiological saline and injected subcutaneously to induce pruritus. Pruritus was evaluated using MicroAct (Neuroscience, Inc., Tokyo, Japan) according to the method established by the company. The mouse was anesthetized and a magnet piece was inserted into the foot skin of the left hind leg. The mouse was put in a chamber surrounded by a coil and the number of scratching actions was recorded by a computer based on the electrical field generated by the scratching. The experimental conditions of the MicroAct were set as follows. Threshold p-p limit, 0.125 V; threshold minimum duration, 0.2 s; maximum amplitude range, 0.5 V; minimum amplitude range, 0.05 V; maximum frequency, 20 Hz; minimum frequency, 5 Hz. Recording was made only for 3 or more consecutive scratching actions. All the experiments were performed for at least 3 times and 2-3 mice were used per each group. Statistical data were represented by means and standard deviations. Statistical comparison was conducted by one-way ANOVA and the Fisher test. Significant difference between the groups was determined by the unpaired Student's t-test. The significant level of the p-value was less than 0.05. In order to measure the effect of inhibiting pruritus induced by SLIGRL, which is an agonist for the protease activated receptor 2, of genistein, daidzein, glycitein and equol, 20 μg of SLIGRL was dissolved in 0.1 mL of physiological saline and injected subcutaneously to induce pruritus. After injecting each of genistein, daidzein, glycitein and equol at 1 μM and 10 μM together with the SLIGRL, the number of scratching actions was counted for 1 hour.
# [5] = test system: TSLP-induced pruritus; assay: TSLP-induced pruritus, number of scratching actions (MicroAct); conditions: mice; 1 μM and 10 μM injected subcutaneously together with 0.67 μg TSLP; counted for 1 hour; p<0.05 versus TSLP-treated group; FIG. 5
# Protocol: Six-week-old, specific-pathogen-free male BALB/c mice were purchased from Orient Bio Korea Inc. (Gapyeong, Gyeonggi-do, Korea) and housed in a laminar flow cabinet. They were provided with standard solid chows ad libitum. At the onset of the test, the mice were 7-8 weeks old. All animal care and use were performed in accordance with the protocol of the Institutional Animal Care and Use Committee of the Chonbuk National University Medical School. Isoflavone-based compounds genistein, daidzein, glycitein and equol were purchased from Sigma. They were dissolved in DMSO and diluted with distilled water. […] Histamine, chloroquine and DNCB were also purchased from Sigma. Pruritus was induced with TSLP. 0.67 μg of TSLP was dissolved in 0.1 mL of physiological saline and injected subcutaneously to induce pruritus. Pruritus was evaluated using MicroAct (Neuroscience, Inc., Tokyo, Japan) according to the method established by the company. The mouse was anesthetized and a magnet piece was inserted into the foot skin of the left hind leg. The mouse was put in a chamber surrounded by a coil and the number of scratching actions was recorded by a computer based on the electrical field generated by the scratching. The experimental conditions of the MicroAct were set as follows. Threshold p-p limit, 0.125 V; threshold minimum duration, 0.2 s; maximum amplitude range, 0.5 V; minimum amplitude range, 0.05 V; maximum frequency, 20 Hz; minimum frequency, 5 Hz. Recording was made only for 3 or more consecutive scratching actions. All the experiments were performed for at least 3 times and 2-3 mice were used per each group. Statistical data were represented by means and standard deviations. Statistical comparison was conducted by one-way ANOVA and the Fisher test. Significant difference between the groups was determined by the unpaired Student's t-test. The significant level of the p-value was less than 0.05. In order to measure the effect of inhibiting thymic stromal lymphopoietin (TSLP)-induced pruritus of genistein, daidzein, glycitein and equol, 0.67 μg of TSLP solution dissolved in 0.1 mL of physiological saline and injected subcutaneously to induce pruritus. After injecting each of genistein, daidzein, glycitein and equol at 1 μM and 10 μM together with the TSLP, the number of scratching actions was counted for 1 hour.
smiles,measurement,setting,value
Oc1ccc([C@H]2COc3cc(O)ccc3C2)cc1 [equol],Effect of inhibiting histamine-induced pruritus (number of scratching actions),[1],did not inhibit
same,Effect of inhibiting chloroquine-induced pruritus (number of scratching actions),[2],did not inhibit
same,Effect of inhibiting DNCB-induced pruritus (number of scratching actions),[3],did not inhibit
same,Effect of inhibiting SLIGRL-induced pruritus (number of scratching actions),[4],did not inhibit
same,Effect of inhibiting TSLP-induced pruritus (number of scratching actions),[5],did not inhibit
COc1cc2c(=O)c(-c3ccc(O)cc3)coc2cc1O [glycitein],Effect of inhibiting histamine-induced pruritus (number of scratching actions),[1],did not inhibit
same,Effect of inhibiting chloroquine-induced pruritus (number of scratching actions),[2],did not inhibit
same,Effect of inhibiting DNCB-induced pruritus (number of scratching actions),[3],did not inhibit
same,Effect of inhibiting SLIGRL-induced pruritus (number of scratching actions),[4],did not inhibit
same,Effect of inhibiting TSLP-induced pruritus (number of scratching actions),[5],did not inhibit
O=c1c(-c2ccc(O)cc2)coc2cc(O)ccc12 [daidzein],Effect of inhibiting histamine-induced pruritus (number of scratching actions),[1],significantly inhibited
same,Effect of inhibiting chloroquine-induced pruritus (number of scratching actions),[2],significantly inhibited
same,Effect of inhibiting DNCB-induced pruritus (number of scratching actions),[3],significantly inhibited
same,Effect of inhibiting SLIGRL-induced pruritus (number of scratching actions),[4],significantly inhibited
same,Effect of inhibiting TSLP-induced pruritus (number of scratching actions),[5],significantly inhibited
"O=c1c(-c2ccc(O)cc2)coc2cc(O)cc(O)c12 [Genistein, genistein]",Effect of inhibiting histamine-induced pruritus (number of scratching actions),[1],significantly inhibited
same,Effect of inhibiting chloroquine-induced pruritus (number of scratching actions),[2],significantly inhibited
same,Effect of inhibiting DNCB-induced pruritus (number of scratching actions),[3],significantly inhibited
same,Effect of inhibiting SLIGRL-induced pruritus (number of scratching actions),[4],significantly inhibited
same,Effect of inhibiting TSLP-induced pruritus (number of scratching actions),[5],significantly inhibited

# Reference: patent US20210308096A1, “COMPOSITION FOR PREVENTING OR TREATING PRURITUS” (INDUSTRIAL COOPERATION FOUNDATION CHONBUK NATIONAL …, priority 2017, published 2021)
